The source of these data is US20120225889A1, “USE OF MACROCYCLIC LACTONE DERIVATIVES FOR THE TREATMENT OF INFLAMMATORY DISORDERS” (PIRAMAL LIFE SCIENCES LIMITED, priority 2010, published 2012).

Each structure is given as a SMILES string.

One test deals with TNF-α. The experiment in a line: Human monocyte assay (LPS-induced): TNF-α. The format is cell-based. To be noted: LPS stimulated human monocytes, 5 h. The source says:
The assay was designed as in reference, Physiological Research, 52, 593-598, (2003), the disclosure of which is incorporated by reference for the teaching of the assay.
The objective of the assay is to determine whether compounds of the present invention—mediated inhibition of LPS-induced cytokines from monocytic THP-1 cell line translates to physiologically relevant human cells. Accordingly, the effect of compounds of the present invention on LPS—induced cytokine production from freshly isolated human monocytes was ascertained.
Peripheral blood was collected from healthy donors into potassium EDTA vacutainer tubes (BD Biosciences, USA). hPBMCs were isolated using density gradient separation (Histopaque-1077; Sigma, USA) and suspended in assay medium which is RPMI culture medium (Sigma, USA) containing 10% heat inactivated FBS (JRH Biosciences, Australia), 100 U/mL penicillin (Sigma, USA) and […] streptomycin (Sigma, USA). Monocytes in the hPBMCs were counted using a Coulter Counter following which the cells were resuspended at 2×10^5 monocytes/mL of assay medium. A cell suspension containing 2×10^4 monocytes was aliquoted per well of a 96-well plate (Nunc, USA). Subsequently, the hPBMCs were incubated for 4-5 h at 37° C., 5% CO2. […] The IC50 values were calculated by a nonlinear regression method using Graph Pad software (Prism 3.03).

A further test deals with T1, p38 MAPK (Homo sapiens, UniProt Q16539).
T1 construct: endogenous in cells; host or cells: Jurkat T-cells (ATCC TIB-152, clone E6-1)
As to the kind of experiment: p38 MAPK assay in anisomycin stimulated Jurkat T-cells (Western blot). The format is cell-based. To be noted: 3 μM, phospho-p38 Western blot. How it is done: The method for identifying inhibitors of p38 MAPK was designed as in reference, Journal of Lipid Research, 40, 1911-1919, (1999), the disclosure of which is incorporated by reference for the teaching of the assay.
Human Jurkat T-cells (ATCC number: TIB-152, clone E6-1, USA) were cultured in culture medium (RPMI 1640 culture medium supplemented with 10% FBS, 100 U/mL penicillin and 100 μg/mL streptomycin) at 37° C., 5% CO2. Culture medium was changed every 2-3 days and always a day prior to the experiment. On the day of the experiment, Jurkat cells were pre-treated with vehicle or test compound at 3 μM, 10 times the IC50 value for IL-6 inhibition in human monocyte assay, for 1 h at 37° C. Subsequently, the cells were stimulated with anisomycin (10 μg/mL; Sigma, USA) for 30 min SB 203580 (1 PM; Sigma, USA) was used as a standard. The sample preparation of the test compound, anisomycin and SB 203580 is as follows: a stock solution (20 mM) of the test compound was prepared in DMSO. […]
Following the stimulation, cells were harvested, rapidly washed with ice-cold PBS and lysed with cold Cell Lytic buffer (Sigma, USA) supplemented with complete protease inhibitor cocktail (Roche, USA) and sodium orthovanadate (Sigma, USA). […] Aliquots of the resulting extracts were analyzed for their protein content using the Coomassie Plus Protein Assay Reagent (Pierce, USA) as per manufacturer's instructions. […]
(Immunoblotting shows a protein as a band on a membrane.)

The test system of the next test is CEBPβ. The experiment in a line: Gene expression profile using RTQ-PCR: CEBPβ. The settings on record: 3 μM. The format is cell-based, human. How it is done:
(§1) The effect of the compound of example 7 was measured in stimulated untreated cells from the monocytic cell line (THP-1), human monocytes and synovial cells from rheumatoid arthritis patient. The effect of the compound in the THP-1 cell line was measured in terms of gene expression and was expressed as fold changes as compared to the cell stimulated control with no drug treatment.
(§2) THP-1 cells, human monocytes and synovial cells were treated with compound of example 7 or vehicle (0.5% DMSO). Total RNA isolation using a commercial RNA extraction kit (Qiagen Corporation, Germany) The first-strand cDNA was synthesized from total RNA using first strand cDNA synthesis kit from Invitrogen Corporation (California, USA). This was followed by real time quantitative polymerase chain reaction (RTQ PCR) using gene specific primers and standard thermal program of initial denaturation at 95° C. for 5 min and cycles of 95° C. for 10 seconds, followed by 60° C. for 30 seconds (Realplex PCR machine from Eppendorf, Germany). Quantitative measurement of products made during PCR cycles was normalized against a housekeeping gene (Actin) and was used to measure the gene expression as fold changes as compared to respective control.

For the next test, the system named is IL-1β. The experiment in a line: Gene expression profile using RTQ-PCR: IL-1β. The test is classed as cell-based, human. The settings on record: 3 μM. How it is done:
as §1, §2

The mark [1] stands for this setting: Human monocytes, 3 h, ± SE, N = 3.

T1 sequence (Q16539 whole entry): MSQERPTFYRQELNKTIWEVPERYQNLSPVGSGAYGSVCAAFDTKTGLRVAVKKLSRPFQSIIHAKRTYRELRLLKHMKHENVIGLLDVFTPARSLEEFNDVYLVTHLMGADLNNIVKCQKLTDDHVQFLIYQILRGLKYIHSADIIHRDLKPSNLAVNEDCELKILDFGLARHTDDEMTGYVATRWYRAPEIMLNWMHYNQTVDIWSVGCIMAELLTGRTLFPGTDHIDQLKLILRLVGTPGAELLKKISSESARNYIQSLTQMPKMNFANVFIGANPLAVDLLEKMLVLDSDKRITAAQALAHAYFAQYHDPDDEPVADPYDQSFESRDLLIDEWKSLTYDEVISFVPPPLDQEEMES

Consider `C/C=C/C(O)C(C)/C=C/C(=N\O)C(C)C(O)C(C)C1OC(=O)/C(OC)=C/C(C)=C/C(C)C(O)C(CC)C(O)C(C)C/C(C)=C/C=C/C1OC` (centres unmarked) [Compound of example 7, (3Z,5E,13E,15E)-18-((5Z,6E,10E)-3,9-Dihydroxy-5-(hydroxymino)-4,8-dimethyldodeca-6,10-dien-2-yl)-9-ethyl-8,10-dihydroxy-3,17-dimethoxy-5,7,11,13-tetramethyl oxacyclooctadeca-3,5,13,15-tetraen-2-one], for which, in the test on TNF-α, it took 10 µM to reach half-maximal inhibition (IC50). In addition, the “inhibition of p38 MAP kinase” value on p38 MAPK is recorded as “did not inhibit”. Moreover, the CEBPβ gene expression is recorded as −2.2 + 0.3 log fold change in the test with CEBPβ (setting [1]); 0.4 log fold change in the test on CEBPβ (Synovial cells, 12 h, N = 1); −0.2 + 0.5 log fold change with CEBPβ (THP-1 cells, 12 h, ± SE, N = 3). Besides, the IL-1β gene expression in the test with IL-1β (setting [1]) is −4.0 log fold change; in the test with IL-1β (Synovial cells, 12 h, N = 1), −0.3 log fold change; with IL-1β (THP-1 cells, 12 h, ± SE, N = 3) it was −0.6 + 0.7 log fold change.

Usually IC50 stands for the point on the concentration scale where inhibition reaches its midpoint. High values mean a need for much substance, low ones inhibition by little substance.
